Molecular target: T1, récepteur vasculaire de l'angiotensine II (Oryctolagus cuniculus, UniProt P34976)
T1 construct: réponse contractile induite par l'angiotensine II dans des anneaux isolés d'aorte de lapin; from tissue; host or cells: isolated rabbit aortic rings
T1 sequence (P34976 1-359): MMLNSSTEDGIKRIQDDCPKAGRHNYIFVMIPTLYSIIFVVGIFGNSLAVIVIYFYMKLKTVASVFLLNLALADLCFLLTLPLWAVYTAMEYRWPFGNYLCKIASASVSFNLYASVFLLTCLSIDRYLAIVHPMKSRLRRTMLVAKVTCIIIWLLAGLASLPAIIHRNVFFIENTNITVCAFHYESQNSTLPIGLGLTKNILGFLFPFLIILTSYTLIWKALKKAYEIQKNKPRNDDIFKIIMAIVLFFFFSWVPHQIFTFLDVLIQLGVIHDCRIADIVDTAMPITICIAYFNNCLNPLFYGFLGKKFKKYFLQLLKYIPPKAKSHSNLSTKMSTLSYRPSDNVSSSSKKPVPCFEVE
Test: Antagonism of the angiotensin II-induced contractile response in isolated rabbit aortic rings
Parameters: species or system lapin
Details: contraction by angiotensine II 3.10⁻⁹ M, test product preincubated 15 minutes, 37°C
Description: L'activité des composés selon l'invention comme antagonistes du récepteur vasculaire de l'angiotensine II a été évaluée par leur efficacité à antagoniser la réponse contractile induite par l'angiotensine II dans des anneaux isolés d'aorte de lapin. Les anneaux sont suspendus dans un bain de Krebs-Henseleit maintenu à 37°C et aéré par un mélange O₂/CO₂ (95/5 , v/v) puis étirés à une tension de repos de 2 g. Après une heure de repos, on provoque une contraction par l'angiotensine II (3.10⁻⁹ M) en présence du produit à tester préincubé pendant 15 minutes. La concentration (exprimée en nanomole) de produit à tester produisant une inhibition de 50 % de la réponse contractile (IC₅₀) est calculée à partir de la courbe concentration-réponse . Les résultats obtenus avec un certain nombre de composés selon l'invention sont regroupés dans le tableau VIII.

CCCCc1ncc(CNc2ccccc2C(=O)O)n1Cc1ccc(C(=O)OCC)cc1 [compound 174]
IC50: 80 nM

CCCCc1nc(Cl)c(CNc2cc(Cl)ccc2C(=O)O)n1Cc1ccc(C(=O)O)cc1 [compound 48]
IC50: 5.3 nM

CCCCc1nc(SC)c(CNc2ccccc2C(=O)O)n1Cc1ccc(C(=O)O)cc1 [compound 198]
IC50: 4.6 nM

CCCCc1ncc(CNc2ccccc2C(=O)O)n1Cc1ccc(C(=O)O)cc1 [exemple 32, acide 2-[[[2-butyl-1-[(4-carboxyphényl)méthyl]-1H-imidazol-5-yl]méthyl]amino]-benzoïque]
IC50: 3.6 nM

CCCCc1ncc(CNc2ccccc2C(=O)OCC(=O)N(CCC)CCC)n1Cc1ccc(C(=O)O)cc1 [compound 134]
IC50: 35 nM

CCCCc1ncc(CNc2ccccc2C(=O)O)n1Cc1ccc(C(=O)NS(=O)(=O)c2ccccc2)cc1 [compound 203]
IC50: 4.4 nM

CCCCc1nc(Cl)c(CNc2ccc(Cl)cc2C(=O)O)n1Cc1ccc(C(=O)O)cc1 [compound 49]
IC50: 13.2 nM

CCCCc1ncc(CNc2ccccc2C(=O)OCCOC)n1Cc1ccc(C(=O)O)cc1 [compound 158]
IC50: 75 nM

CCCCc1ncc(CNc2ccccc2C(=O)O)n1Cc1ccc(C(=O)NS(=O)(=O)c2ccc(Cl)cc2)cc1 [compound 202]
IC50: 14.7 nM

CCCCc1ncc(CNc2cc([N+](=O)[O-])ccc2C(=O)O)n1Cc1ccc(C(=O)O)cc1 [compound 35]
IC50: 1.2 nM

CCCCCC(=O)OCOC(=O)c1ccccc1NCc1cnc(CCCC)n1Cc1ccc(C(=O)O)cc1 [compound 148]
IC50: 12 nM

CCCCc1nc(Cl)c(CNc2cc([N+](=O)[O-])ccc2C(=O)O)n1Cc1ccc(C(=O)O)cc1 [compound 46]
IC50: 10.5 nM

CCCCc1ncc(CNc2cc(N=[N+]=[N-])ccc2C(=O)O)n1Cc1ccc(C(=O)O)cc1 [compound 226]
IC50: 6 nM

CCCCc1ncc(CNc2ccccc2C(=O)OCCC(C)C)n1Cc1ccc(C(=O)O)cc1 [compound 161]
IC50: 64 nM

CCCCc1nc(Cl)c(CNc2ccccc2C(=O)O)n1Cc1ccc(C(=O)O)cc1Cl [compound 41]
IC50: 5.1 nM

CCCCc1ncc(CNc2ccccc2C(=O)OCCc2ccccc2)n1Cc1ccc(C(=O)O)cc1 [compound 156]
IC50: 82 nM

CCCCCOC(=O)c1ccccc1NCc1cnc(CCCC)n1Cc1ccc(C(=O)O)cc1 [compound 170]
IC50: 80 nM

CCCCc1ncc(CNc2ccccc2C(=O)OCC(C)C)n1Cc1ccc(C(=O)O)cc1 [compound 164]
IC50: 40 nM

CCCCc1nc(I)c(CNc2ccccc2C(=O)O)n1Cc1ccc(C(=O)O)cc1 [compound 44]
IC50: 5.3 nM

CCCCc1nc(Cl)c(Cn2c(C(=O)O)cc3ccccc32)n1Cc1ccc(C(=O)O)cc1 [compound 34]
IC50: 8.4 nM

CCCCc1ncc(CNc2ccccc2C(=O)O)n1Cc1ccc(C(=O)NS(=O)(=O)c2cccc(Cl)c2)cc1 [compound 201]
IC50: 10 nM

CCCCc1nc(Cl)c(CNc2c(Cl)cc(Cl)cc2C(=O)O)n1Cc1ccc(C(=O)O)cc1 [compound 39]
IC50: 106 nM

CCCCc1nc(Cl)c(CNc2ccccc2C(=O)O)n1Cc1ccc(-c2nnn[nH]2)cc1 [compound 51]
IC50: 10.8 nM

CCCCc1nc(Cl)c(CNc2c(C(=O)O)cc(OC)c(OC)c2OC)n1Cc1ccc(C(=O)O)cc1 [compound 40]
IC50: 57.6 nM

CCCc1nc(Cl)c(CNc2ccccc2C(=O)O)n1Cc1ccc(C(=O)O)cc1 [compound 42]
IC50: 5.1 nM

CCCCc1ncc(CNc2ccccc2C(=O)O)n1Cc1ccc(C(=O)NS(=O)(=O)c2ccccc2N=[N+]=[N-])cc1 [compound 228]
IC50: 2 nM

CCCCc1ncc(CNc2ccccc2C(=O)OCC(=O)N(CC)CC)n1Cc1ccc(C(=O)OCC(=O)N(CC)CC)cc1 [exemple 68, acide 2-[[[2-butyl-1-[(4-((((diéthylamino)carbonyl)méthoxy)carbonyl)phényl)méthyl]-1H-imidazol-5-yl]méthyl]amino]-benzoïque, ((diéthylamino)carbonyl)méthyl ester]
IC50: 30 nM

CCCCc1ncc(CNc2ccccc2C(=O)OCC(=O)N(CCC)CCC)n1Cc1ccc(C(=O)OCC(=O)N(CCC)CCC)cc1 [compound 181]
IC50: 80 nM

CCCCOC(=O)c1ccccc1NCc1cnc(CCCC)n1Cc1ccc(C(=O)O)cc1 [compound 166]
IC50: 15 nM

CCCCc1ncc(Cn2c(C(=O)O)cc3ccccc32)n1Cc1ccc(C(=O)O)cc1 [compound 33]
IC50: 7.1 nM

CCCCc1ncc(CNc2ccccc2C(=O)OC(C)OC(=O)C2CCCCC2)n1Cc1ccc(C(=O)O)cc1 (centres unmarked) [compound 145]
IC50: 40 nM

CCCCc1ncc(CNc2ccccc2C(=O)OCC(=O)N(CC)CC)n1Cc1ccc(C(=O)OC)cc1 [compound 76]
IC50: 90 nM

CCCCc1ncc(CNc2ccccc2C(=O)OCC(=O)OCC)n1Cc1ccc(C(=O)O)cc1 [compound 141]
IC50: 10 nM

CCCCc1nc(Cl)c(CNc2ccc(C)cc2C(=O)O)n1Cc1ccc(C(=O)O)cc1 [compound 45]
IC50: 6.7 nM

CCCCc1ncc(CNc2ccccc2C(=O)O)n1Cc1ccc(C(=O)NS(=O)(=O)c2ccc(OC)cc2)cc1 [compound 204]
IC50: 9.5 nM

CCCCc1ncc(CNc2ccccc2C(=O)OCC(=O)CC)n1Cc1ccc(C(=O)O)cc1 [compound 155]
IC50: 8.7 nM

CCCCc1nc(Cl)c(CNc2cc3ccccc3cc2C(=O)O)n1Cc1ccc(C(=O)O)cc1 [compound 47]
IC50: 71.3 nM

CCCCc1ncc(CNc2ccccc2C(=O)O)n1Cc1ccc(C(=O)NS(C)(=O)=O)cc1 [compound 205]
IC50: 5.5 nM

CCCCc1nc(Cl)c(CNc2ccccc2-c2nnn[nH]2)n1Cc1ccc(C(=O)O)cc1 [compound 52]
IC50: 40.2 nM

CCCc1ncc(CNc2ccccc2C(=O)O)n1Cc1ccc(C(=O)O)cc1 [compound 36]
IC50: 7 nM

CCCCc1nc(Cl)c(CN(C(C)=O)c2ccccc2C(=O)O)n1Cc1ccc(C(=O)O)cc1 [compound 55]
IC50: 69.1 nM

CCCCc1ncc(CNc2ccccc2C(=O)OCC2CC2)n1Cc1ccc(C(=O)O)cc1 [compound 163]
IC50: 50 nM

CCCCc1ncc(CNc2ccccc2C(=O)OCOC(=O)CCC)n1Cc1ccc(C(=O)O)cc1 [compound 149]
IC50: 5 nM

CCCCc1ncc(CNc2ccccc2C(=O)OCC(O)CO)n1Cc1ccc(C(=O)O)cc1 (centres unmarked) [exemple 28, acide 2-[[[2-butyl-1-[(4-carboxyphényl)méthyl]-1H-imidazol-5-yl]méthyl]amino]-benzoïque, 2,3-dihydroxy-propyl ester]
IC50: 80 nM

CCCCc1nc(Cl)c(CNc2ccccc2C(=O)O)n1Cc1ccc(C(=O)O)cc1 [compound 50]
IC50: 5.7 nM

CCCCc1ncc(CNc2ccccc2C(=O)O)n1Cc1ccc(C(=O)OCC2CC2)cc1 [compound 178]
IC50: 67 nM

CCCCc1ncc(CNc2ccccc2C(=O)O)n1Cc1ccc(C(=O)NS(=O)(=O)c2ccccc2Cl)cc1 [compound 211]
IC50: 0.8 nM

CCCCc1ncc(CNc2ccccc2C(=O)O)n1Cc1ccc(C(=O)NS(=O)(=O)c2ccccc2C)cc1 [compound 67]
IC50: 1.5 nM

CCCCc1nc(Cl)c(CNc2ccccc2C(=O)O)n1Cc1ccc(C(=O)NS(=O)(=O)c2ccccc2C)cc1 [compound 66]
IC50: 8.8 nM

CCCCNC(=O)c1ccccc1NCc1cnc(CCCC)n1Cc1ccc(C(=O)O)cc1 [compound 210]
IC50: 84 nM

CCCCc1ncc(CNc2ccccc2C(=O)OCC2COC(C)(C)O2)n1Cc1ccc(C(=O)O)cc1 (centres unmarked) [exemple 26, acide 2-[[[2-butyl-1-[(4-carboxyphényl)méthyl]-1H-imidazol-5-yl]méthyl]amino]-benzoïque, 2,2-diméthyl-1,3-dioxolane-4-yl-méthyl ester]
IC50: 100 nM

CCCCc1ncc(CNc2ccccc2C(N)=O)n1Cc1ccc(C(=O)O)cc1 [compound 209]
IC50: 70 nM

CCCc1ncc(CNc2cc([N+](=O)[O-])ccc2C(=O)O)n1Cc1ccc(C(=O)O)cc1 [compound 212]
IC50: 46 nM

CCCCc1ncc(CNc2ccccc2C(=O)Oc2ccccc2)n1Cc1ccc(C(=O)O)cc1 [compound 157]
IC50: 54 nM

CCCCc1nc(C(F)(F)F)c(CNc2ccccc2C(=O)O)n1Cc1ccc(C(=O)O)cc1 [compound 43]
IC50: 6.3 nM

CCCCc1ncc(CNc2ccccc2C(=O)OCOC(=O)CCC)n1Cc1ccc(C(=O)NS(=O)(=O)c2ccccc2C)cc1 [compound 187]
IC50: 7 nM

— patent publication EP0564356A1, “4-phenylaminomethylimidazole derivatives, process for their preparation, angiotensin II receptor antagonists and their application in therapy” (FOURNIER INDUSTRIE ET SANTE, priority 1992, dated 1993)
